Measurements: patent US20250230193A1, “CYCLIC COMPOUND HAVING SELECTIVE KRAS INHIBITORY EFFECT ON HRAS AND NRAS” (CHUGAI SEIYAKU KABUSHIKI KAISHA, priority 2022, published 2025)
Where a SMILES comes first, the peptide text is derived from it. Bridges are numbered along the chain shown (N, C = ends). [ ]: non-standard residue; d: D form. hPhe(3-Cl-4-CF3) = N[C@@H](CCc1ccc(C(F)(F)F)c(Cl)c1)C(=O)O; NPrPhe(4-CF3) = CCCN[C@@H](Cc1ccc(C(F)(F)F)cc1)C(=O)O; NMeGly(cPent) = CN[C@H](C(=O)O)C1CCCC1; Pro(4,4-F2) = O=C(O)[C@@H]1CC(F)(F)CN1; Hyp = O=C(O)[C@@H]1C[C@@H](O)CN1; NMeL = CN[C@@H](CC(C)C)C(=O)O; NMeA = CN[C@@H](C)C(=O)O; Ac5c = NC1(C(=O)O)CCCC1; Aze = O=C(O)[C@@H]1CCN1; Ac4c = NC1(C(=O)O)CCC1; Sar = CNCC(=O)O

Experiments:
[1] = target: GDP-bound HRAS wild-type protein (Homo sapiens, UniProt P01112); experiment: Binding to HRAS by surface plasmon resonance (SPR), Single Cycle Kinetics; details: KD ratio HRAS/KRAS, SPR
[2] = target: GDP-bound NRAS wild-type protein (Homo sapiens, UniProt P01111); experiment: Binding to NRAS by surface plasmon resonance (SPR), Single Cycle Kinetics; details: KD ratio NRAS/KRAS, SPR
GDP-bound NRAS wild-type protein, sequence (P01111 whole entry): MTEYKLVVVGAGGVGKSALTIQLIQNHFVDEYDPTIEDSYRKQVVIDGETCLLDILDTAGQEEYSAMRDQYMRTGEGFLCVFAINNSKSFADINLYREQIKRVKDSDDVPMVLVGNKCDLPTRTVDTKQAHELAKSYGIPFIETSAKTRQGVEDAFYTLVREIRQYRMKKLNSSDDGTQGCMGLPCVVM

GDP-bound HRAS wild-type protein, sequence (P01112 whole entry): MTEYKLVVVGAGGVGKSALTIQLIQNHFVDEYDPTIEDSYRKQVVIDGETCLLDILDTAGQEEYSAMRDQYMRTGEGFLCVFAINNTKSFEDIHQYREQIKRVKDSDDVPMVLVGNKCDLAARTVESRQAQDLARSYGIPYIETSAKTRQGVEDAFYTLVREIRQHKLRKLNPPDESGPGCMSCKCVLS

Row | SMILES | HRAS/KRAS (ratio of KD for GDP-bound HRAS wild-type to KD for KRAS) [1] | NRAS/KRAS (ratio of KD for GDP-bound NRAS wild-type to KD for KRAS) [2]
1 | CCCN1C(=O)CN(C)C(=O)[C@@H]2CCN2C(=O)[C@H]([C@@H](C)CC)NC(=O)[C@H](CC(C)C)N(C)C(=O)C[C@@H](C(=O)N(C)C)NC(=O)[C@H](C2CCCC2)N(C)C(=O)C2(CCC2)NC(=O)[C@@H]2CC(F)(F)CN2C(=O)[C@H](CCc2ccc(C(F)(F)F)c(Cl)c2)NC(=O)CN(C)C(=O)[C@@H]1Cc1ccc(C(F)(F)F)cc1 [PP0376] ([NMeL]I[Aze][Sar][NPrPhe(4-CF3)][Sar][hPhe(3-Cl-4-CF3)][Pro(4,4-F2)][Ac4c][NMeGly(cPent)]D-NMe2; lactam N-11) | B (a compound having 3 or more and less than 10 is denoted as B) | B (a compound having 3 or more and less than 10 is denoted as B)
2 | CCCN1C(=O)CN(C)C(=O)[C@@H]2CCN2C(=O)[C@H]([C@@H](C)CC)NC(=O)[C@H](CC(C)C)N(C)C(=O)C[C@@H](C(=O)N(C)C)NC(=O)[C@H](C2CCCC2)N(C)C(=O)C2(CCCC2)NC(=O)[C@@H]2C[C@@H](OCC)CN2C(=O)[C@H](CCc2ccc(C(F)(F)F)c(Cl)c2)NC(=O)CN(C)C(=O)[C@@H]1Cc1ccc(C(F)(F)F)cc1 [PP0377] ([NMeL]I[Aze][Sar][NPrPhe(4-CF3)][Sar][hPhe(3-Cl-4-CF3)][Hyp](Et)[Ac5c][NMeGly(cPent)]D-NMe2; lactam N-11) | C (A compound having a KD ratio of 0.1 or more and less than 3 is denoted as C) | B (a compound having 3 or more and less than 10 is denoted as B)
3 | CCCN1C(=O)CN(C)C(=O)[C@@H]2CCN2C(=O)[C@H]([C@@H](C)CC)NC(=O)[C@H](CC(C)C)N(C)C(=O)C[C@@H](C(=O)N(C)C)NC(=O)[C@H](C2CCCC2)N(C)C(=O)C2(CCC2)NC(=O)[C@@H]2C[C@@H](OCC)CN2C(=O)[C@H](CCc2ccc(C(F)(F)F)c(Cl)c2)NC(=O)CN(C)C(=O)[C@@H]1Cc1ccc(C(F)(F)F)cc1 [PP0378] ([NMeL]I[Aze][Sar][NPrPhe(4-CF3)][Sar][hPhe(3-Cl-4-CF3)][Hyp](Et)[Ac4c][NMeGly(cPent)]D-NMe2; lactam N-11) | B (a compound having 3 or more and less than 10 is denoted as B) | B (a compound having 3 or more and less than 10 is denoted as B)
4 | CCCN1C(=O)[C@@H]2CCN2C(=O)[C@H](C)N(C)C(=O)[C@H]([C@@H](C)CC)NC(=O)[C@H](CC(C)C)N(C)C(=O)C[C@@H](C(=O)N(C)C)NC(=O)[C@H](C2CCCC2)N(C)C(=O)C2(CCCC2)NC(=O)[C@@H]2CCCN2C(=O)[C@H](CCc2ccc(C(F)(F)F)c(Cl)c2)NC(=O)CN(C)C(=O)[C@@H]1Cc1ccc(C(F)(F)F)cc1 [PP0379] ([NMeL]I[NMeA][Aze][NPrPhe(4-CF3)][Sar][hPhe(3-Cl-4-CF3)]P[Ac5c][NMeGly(cPent)]D-NMe2; lactam N-11) | B (a compound having 3 or more and less than 10 is denoted as B) | C (A compound having a KD ratio of 0.1 or more and less than 3 is denoted as C)
5 | CCCN1C(=O)[C@@H]2CCN2C(=O)[C@H](C)N(C)C(=O)[C@H]([C@@H](C)CC)NC(=O)[C@H](CC(C)C)N(C)C(=O)C[C@@H](C(=O)N(C)C)NC(=O)[C@H](C2CCCC2)N(C)C(=O)C2(CCC2)NC(=O)[C@@H]2CCCN2C(=O)[C@H](CCc2ccc(C(F)(F)F)c(Cl)c2)NC(=O)CN(C)C(=O)[C@@H]1Cc1ccc(C(F)(F)F)cc1 [PP0380] ([NMeL]I[NMeA][Aze][NPrPhe(4-CF3)][Sar][hPhe(3-Cl-4-CF3)]P[Ac4c][NMeGly(cPent)]D-NMe2; lactam N-11) | B (a compound having 3 or more and less than 10 is denoted as B) | C (A compound having a KD ratio of 0.1 or more and less than 3 is denoted as C)
6 | CCCN1C(=O)[C@@H]2CCN2C(=O)[C@H](C)N(C)C(=O)[C@H]([C@@H](C)CC)NC(=O)[C@H](CC(C)C)N(C)C(=O)C[C@@H](C(=O)N(C)C)NC(=O)[C@H](C2CCCC2)N(C)C(=O)C2(CCCC2)NC(=O)[C@@H]2CC(F)(F)CN2C(=O)[C@H](CCc2ccc(C(F)(F)F)c(Cl)c2)NC(=O)CN(C)C(=O)[C@@H]1Cc1ccc(C(F)(F)F)cc1 [PP0381] ([NMeL]I[NMeA][Aze][NPrPhe(4-CF3)][Sar][hPhe(3-Cl-4-CF3)][Pro(4,4-F2)][Ac5c][NMeGly(cPent)]D-NMe2; lactam N-11) | B (a compound having 3 or more and less than 10 is denoted as B) | C (A compound having a KD ratio of 0.1 or more and less than 3 is denoted as C)
7 | CCCN1C(=O)[C@@H]2CCN2C(=O)[C@H](C)N(C)C(=O)[C@H]([C@@H](C)CC)NC(=O)[C@H](CC(C)C)N(C)C(=O)C[C@@H](C(=O)N(C)C)NC(=O)[C@H](C2CCCC2)N(C)C(=O)C2(CCC2)NC(=O)[C@@H]2CC(F)(F)CN2C(=O)[C@H](CCc2ccc(C(F)(F)F)c(Cl)c2)NC(=O)CN(C)C(=O)[C@@H]1Cc1ccc(C(F)(F)F)cc1 [PP0382] ([NMeL]I[NMeA][Aze][NPrPhe(4-CF3)][Sar][hPhe(3-Cl-4-CF3)][Pro(4,4-F2)][Ac4c][NMeGly(cPent)]D-NMe2; lactam N-11) | B (a compound having 3 or more and less than 10 is denoted as B) | C (A compound having a KD ratio of 0.1 or more and less than 3 is denoted as C)
8 | CCCN1C(=O)[C@@H]2CCN2C(=O)[C@H](C)N(C)C(=O)[C@H]([C@@H](C)CC)NC(=O)[C@H](CC(C)C)N(C)C(=O)C[C@@H](C(=O)N(C)C)NC(=O)[C@H](C2CCCC2)N(C)C(=O)C2(CCCC2)NC(=O)[C@@H]2C[C@@H](OCC)CN2C(=O)[C@H](CCc2ccc(C(F)(F)F)c(Cl)c2)NC(=O)CN(C)C(=O)[C@@H]1Cc1ccc(C(F)(F)F)cc1 [PP0383] ([NMeL]I[NMeA][Aze][NPrPhe(4-CF3)][Sar][hPhe(3-Cl-4-CF3)][Hyp](Et)[Ac5c][NMeGly(cPent)]D-NMe2; lactam N-11) | B (a compound having 3 or more and less than 10 is denoted as B) | C (A compound having a KD ratio of 0.1 or more and less than 3 is denoted as C)
9 | CCCN1C(=O)[C@@H]2CCN2C(=O)[C@H](C)N(C)C(=O)[C@H]([C@@H](C)CC)NC(=O)[C@H](CC(C)C)N(C)C(=O)C[C@@H](C(=O)N(C)C)NC(=O)[C@H](C2CCCC2)N(C)C(=O)C2(CCC2)NC(=O)[C@@H]2C[C@@H](OCC)CN2C(=O)[C@H](CCc2ccc(C(F)(F)F)c(Cl)c2)NC(=O)CN(C)C(=O)[C@@H]1Cc1ccc(C(F)(F)F)cc1 [PP0384] ([NMeL]I[NMeA][Aze][NPrPhe(4-CF3)][Sar][hPhe(3-Cl-4-CF3)][Hyp](Et)[Ac4c][NMeGly(cPent)]D-NMe2; lactam N-11) | B (a compound having 3 or more and less than 10 is denoted as B) | C (A compound having a KD ratio of 0.1 or more and less than 3 is denoted as C)
10 | CCCN1C(=O)[C@@H]2CCN2C(=O)CN(C)C(=O)[C@H]([C@@H](C)CC)NC(=O)[C@H](CC(C)C)N(C)C(=O)C[C@@H](C(=O)N(C)C)NC(=O)[C@H](C2CCCC2)N(C)C(=O)C2(CCC2)NC(=O)[C@@H]2CCCN2C(=O)[C@H](CCc2ccc(C(F)(F)F)c(Cl)c2)NC(=O)CN(C)C(=O)[C@@H]1Cc1ccc(C(F)(F)F)cc1 [PP0386] ([NMeL]I[Sar][Aze][NPrPhe(4-CF3)][Sar][hPhe(3-Cl-4-CF3)]P[Ac4c][NMeGly(cPent)]D-NMe2; lactam N-11) | B (a compound having 3 or more and less than 10 is denoted as B) | C (A compound having a KD ratio of 0.1 or more and less than 3 is denoted as C)
11 | CCCN1C(=O)[C@@H]2CCN2C(=O)CN(C)C(=O)[C@H]([C@@H](C)CC)NC(=O)[C@H](CC(C)C)N(C)C(=O)C[C@@H](C(=O)N(C)C)NC(=O)[C@H](C2CCCC2)N(C)C(=O)C2(CCCC2)NC(=O)[C@@H]2CC(F)(F)CN2C(=O)[C@H](CCc2ccc(C(F)(F)F)c(Cl)c2)NC(=O)CN(C)C(=O)[C@@H]1Cc1ccc(C(F)(F)F)cc1 [PP0387] ([NMeL]I[Sar][Aze][NPrPhe(4-CF3)][Sar][hPhe(3-Cl-4-CF3)][Pro(4,4-F2)][Ac5c][NMeGly(cPent)]D-NMe2; lactam N-11) | B (a compound having 3 or more and less than 10 is denoted as B) | C (A compound having a KD ratio of 0.1 or more and less than 3 is denoted as C)
12 | CCCN1C(=O)[C@@H]2CCN2C(=O)CN(C)C(=O)[C@H]([C@@H](C)CC)NC(=O)[C@H](CC(C)C)N(C)C(=O)C[C@@H](C(=O)N(C)C)NC(=O)[C@H](C2CCCC2)N(C)C(=O)C2(CCC2)NC(=O)[C@@H]2CC(F)(F)CN2C(=O)[C@H](CCc2ccc(C(F)(F)F)c(Cl)c2)NC(=O)CN(C)C(=O)[C@@H]1Cc1ccc(C(F)(F)F)cc1 [PP0388] ([NMeL]I[Sar][Aze][NPrPhe(4-CF3)][Sar][hPhe(3-Cl-4-CF3)][Pro(4,4-F2)][Ac4c][NMeGly(cPent)]D-NMe2; lactam N-11) | B (a compound having 3 or more and less than 10 is denoted as B) | C (A compound having a KD ratio of 0.1 or more and less than 3 is denoted as C)
13 | CCCN1C(=O)[C@@H]2CCN2C(=O)CN(C)C(=O)[C@H]([C@@H](C)CC)NC(=O)[C@H](CC(C)C)N(C)C(=O)C[C@@H](C(=O)N(C)C)NC(=O)[C@H](C2CCCC2)N(C)C(=O)C2(CCCC2)NC(=O)[C@@H]2C[C@@H](OCC)CN2C(=O)[C@H](CCc2ccc(C(F)(F)F)c(Cl)c2)NC(=O)CN(C)C(=O)[C@@H]1Cc1ccc(C(F)(F)F)cc1 [PP0389] ([NMeL]I[Sar][Aze][NPrPhe(4-CF3)][Sar][hPhe(3-Cl-4-CF3)][Hyp](Et)[Ac5c][NMeGly(cPent)]D-NMe2; lactam N-11) | B (a compound having 3 or more and less than 10 is denoted as B) | C (A compound having a KD ratio of 0.1 or more and less than 3 is denoted as C)
